Laboratory results taken from US20120207862A1, “ORAL INHIBITORS OF AGE-RELATED NADH OXIDASE (arNOX), COMPOSITIONS AND NATURAL SOURCES” (priority 2010, published 2012).
Several values for one entry are separate records, joined by “and”; a condition that tells them apart may be missing. Equal entries are not always repeated. Entries after “also recorded” stand apart in the source; their conditions may differ. Where two headings read alike, the source gives them in different places. Blank lines part the entries; values can stand above or below the molecule they belong to.

Key:
arNOX [1] = test: arNOX inhibition assay (superoxide-dependent reduction of ferric cytochrome c); type: biochemical, human
Method: Reduction of ferric cytochrome c by superoxide was employed as a standard measure of superoxide formation (Mayo, L. A. and Curnutte, J., 1990, Meth. Enzyme. 186:567-575; Butler, J. et al., 1982, J. Biol. Chem. 257:10747-10750). This is a widely accepted method when coupled to superoxide dismutase inhibition for the measurement of superoxide generation. The assay consists of 150 μl buffy coats in PBSG buffer (8.06 g NaCl, 0.2 g KCl, 0.18 g Na2HPO4, 0.13 g CaCl2, 0.1. g MgCl2, 1.35 g glucose dissolved in 1000 ml deionized water, adjusted to pH 7.4, filtered and stored at 4° C.). Rates were determined using an SLM Aminco DW-2000 spectrophotometer (Milton Roy, Rochester, N.Y., USA) in the dual wave length mode of operation with continuous measurements over 1 min every 1.5 min. After 45 min, test compounds were added and the reaction was continued for an additional 45 min. After 45 min, a millimolar extinction coefficient of 19.1 cm^−1 was used for reduced ferricytochrome c. Extracts were made of the potentially inhibitory compounds in water unless otherwise indicated.
Infusions are prepared by adding 125 mg material (for herbs or spices, dry weight) to 1 ml boiling water. The solutions are allowed to cool slowly and steep at room temperature overnight. Pure compounds (gallic acid, apigenin, derivatives of benzoic acid) are prepared as 100 mM stock solutions in water, ethanol or DMSO, depending on solubility in a particular liquid.
Tinctures are prepared by adding […] of material (fresh weight) to 1 ml ethanol and allowed to steep overnight (or from about 3-30 hours, about 6-24, or about 12-20 or about 18 hours). Insoluble and particulate material is allowed to sediment, and the soluble material is decanted. Tinctures, infusions and stock solutions of pure compounds are tested undiluted, diluted 1:10, 1:100 and 1:1000 to determine EC50 (the dose which causes 50% inhibition of arNOX activity). For tinctures or infusions, aliquots of 60 μl are added to 2.5 ml arNOX assay. For stock solutions (undiluted or diluted), aliquots of 2.5 μl are added to 2.5 ml arNOX assay. For example, addition of an undiluted 100 mM stock solution results in a final concentration of 100 μM in the assay.

arNOX [2] = test system: T1, arNOX; test: as above; type: biochemical, human; details: read-out: EC50 (dose which causes 50% inhibition of arNOX activity)
T1 construct: other: infusion; human saliva

arNOX [3] = details: Morré et al., 2008, BioFactors 32:231-235; cited from earlier work
Solubility in water = type: physicochemical
salivary arNOX = test: Kinetics of salivary arNOX inhibition after oral administration to a volunteer; type: in vivo, human; details: single oral dose at time 0 h, subject
Method: To determine the kinetics of arNOX inhibition, capsules containing 350 to 700 mg of selected seasonings and active ingredients were administered orally to a volunteer and the arNOX activity of collected saliva was analyzed serially. arNOX activity of saliva and sera correlate closely (FIG. 14) such that salivary arNOX is reflective of the inhibition of serum arNOX.

Molecule: O[C@H]1[C@H](O)[C@@H](O)[C@H](O)[C@@H](O)[C@H]1O [inositol]
arNOX inhibition (in words) (arNOX [1]): inhibited arNOX to varying degrees

EC50 (arNOX [2]): 200 nM
Molecule: Cc1cc(C)cc(C(=O)O)c1 [3,5-dimethylbenzoic acid]
arNOX inhibition (in words) (arNOX [1]): most inhibitory

Molecule: COC1=C(OC)C(=O)C(C/C=C(\C)CC/C=C(\C)CC/C=C(\C)CC/C=C(\C)CC/C=C(\C)CC/C=C(\C)CC/C=C(\C)CC/C=C(\C)CCC=C(C)C)=C(C)C1=O [CoQ9]
inhibition of arNOX activity of aging cells (arNOX [3]): inhibited

Molecule: OCc1ccccc1O[C@@H]1O[C@H](CO)[C@@H](O)[C@H](O)[C@H]1O [salicin, reference compound]
arNOX inhibition (in words) (arNOX [1]): inhibited arNOX to varying degrees
type of arNOX inhibition from kinetic data (arNOX [1]; FIG. 1): competitive inhibitor

Molecule: (±)-catechin
arNOX inhibition (in words) (arNOX [1]): inhibits arNOX; also recorded: potent arNOX inhibitor
effective final concentration (arNOX [1]): 100 μM and 300 ng/mL

Molecule: O=P(O)(O)O[C@H]1[C@H](OP(=O)(O)O)[C@@H](OP(=O)(O)O)[C@H](OP(=O)(O)O)[C@@H](OP(=O)(O)O)[C@H]1OP(=O)(O)O [phytic acid]
arNOX inhibition (in words) (arNOX [1]): inhibited arNOX to varying degrees

Molecule: Oc1ncnc2[nH]ncc12 [allopuranol, reference compound]
arNOX inhibition (in words) (arNOX [1]): inhibited arNOX to varying degrees

water solubility (Solubility in water): insoluble in water
water solubility (Solubility in water; listed as apigenin): low water solubility
Molecule: O=c1cc(-c2ccc(O)cc2)oc2cc(O)cc(O)c12 [apigenin aglycone, apigenin]
inhibition of arNOX activity at 10 μM (arNOX [1]; 10 μM, supplied as DMSO solution): inhibited arNOX activity

Molecule: COC1=C(OC)C(=O)C(C/C=C(\C)CC/C=C(\C)CC/C=C(\C)CC/C=C(\C)CC/C=C(\C)CC/C=C(\C)CC/C=C(\C)CC/C=C(\C)CC/C=C(\C)CCC=C(C)C)=C(C)C1=O [CoQ10]
inhibition of arNOX activity of aging cells (arNOX [3]): inhibited

Molecule: COC1=C(OC)C(=O)C(C/C=C(\C)CC/C=C(\C)CC/C=C(\C)CC/C=C(\C)CC/C=C(\C)CC/C=C(\C)CC/C=C(\C)CCC=C(C)C)=C(C)C1=O [CoQ8]
inhibition of arNOX activity of aging cells (arNOX [3]): inhibited

Molecule: O=C(O)c1cc(O)c(O)c(O)c1 [gallic acid, 3,4,5-trihydroxybenzoic acid]
arNOX inhibition (in words) (arNOX [1]): active
effective final concentration (arNOX [1]): 0.14 μM and 10 ng/mL
maximum inhibition of salivary arNOX (salivary arNOX): 84%
time of maximum inhibition of salivary arNOX (salivary arNOX): 8 h
